Results as given in BindingDB's records for doi:10.1016/S0960-894X(00)80062-1 (1994).

Molecular target: Squalene synthase (Candida albicans)
Assay: In vitro inhibitory activity against Candida albicans squalene synthase

With `C=C(CCC12CCC(C(=O)O)(O1)C(O)(C(=O)O)C(C(=O)O)O2)[C@@H](OC(C)=O)[C@H](C)Cc1ccccc1` (stereo partly drawn) [1-((4S,5R)-4-Acetoxy-5-methyl-3-methylene-6-phenyl-hexyl)-4-hydroxy-2,8-dioxa-bicyclo[3.2.1]octane-3,4,5-tricarboxylic acid] the IC50 was 0.43 µM.
